Reference: patent US20190055279A1, “NOVEL POLYPEPTIDES WITH IMPROVED PROTEOLYTIC STABILITY, AND METHODS OF PREPARING AND USING SAME” (TUFTS UNIVERSITY, priority 2015, published 2019)
“Also recorded” adds a separate entry of the source. Where a SMILES comes first, the peptide text is derived from it. Side-chain parts run from the residue outwards. [ ]: non-standard residue; d: D form. The star is where a group is joined. N(CH2CF3)His = O=C(O)[C@H](Cc1c[nH]cn1)NCC(F)(F)F; Palmitoyl = CCCCCCCCCCCCCCCC(=O)*; βAla = NCCC(=O)O

Tests used:
DPP4 [1] = molecular target: T1, DPP4 (Homo sapiens, UniProt P27487); experiment: Sensitivity to DPP4: overnight incubation with recombinant DPP4 or vehicle, then receptor agonist bioassay; settings: for DPP4 degradation / resistance (in words): overnight incubation with or without DPP4, readout at cognate receptor
T1 sequence (P27487 whole entry, species assumed): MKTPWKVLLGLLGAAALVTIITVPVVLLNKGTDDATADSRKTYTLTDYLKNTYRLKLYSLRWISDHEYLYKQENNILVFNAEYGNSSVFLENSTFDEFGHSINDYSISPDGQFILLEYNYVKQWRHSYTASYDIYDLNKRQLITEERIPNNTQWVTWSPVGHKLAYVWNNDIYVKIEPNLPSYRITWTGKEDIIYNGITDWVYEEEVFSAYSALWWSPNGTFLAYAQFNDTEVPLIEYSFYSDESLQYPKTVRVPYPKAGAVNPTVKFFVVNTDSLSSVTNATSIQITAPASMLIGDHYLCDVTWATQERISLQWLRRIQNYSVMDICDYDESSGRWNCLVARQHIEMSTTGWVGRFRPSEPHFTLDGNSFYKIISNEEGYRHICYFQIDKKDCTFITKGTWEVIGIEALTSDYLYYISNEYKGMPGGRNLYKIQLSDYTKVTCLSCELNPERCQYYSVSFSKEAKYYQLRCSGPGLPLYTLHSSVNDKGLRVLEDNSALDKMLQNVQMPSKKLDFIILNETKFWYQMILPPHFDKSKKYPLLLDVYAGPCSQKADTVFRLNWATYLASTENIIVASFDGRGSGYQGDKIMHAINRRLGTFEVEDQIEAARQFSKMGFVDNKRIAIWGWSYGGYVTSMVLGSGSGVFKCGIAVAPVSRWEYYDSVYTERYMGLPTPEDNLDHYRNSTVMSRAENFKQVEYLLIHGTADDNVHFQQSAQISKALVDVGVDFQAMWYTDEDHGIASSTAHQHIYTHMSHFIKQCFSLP
Method: Plotting concentration versus the luciferase activity yielded quantitative parameters for combined binding (potency) and signaling (efficacy) in a single step. […] DPP4 treated peptides: 10 μl of 0.26 mM peptide were incubated with 2 μL DPP4 in buffer ±DMSO for 18 hrs. Control peptides: 10 μl of 0.26 mM peptide was added to buffer ±DMSO. The final DMSO concentration was the same for all peptides and all peptides were diluted to 0.26 mM concentrations for the DPP4 assay.
Compounds are incubated overnight at 37° C. in the presence of recombinant DPP4 or vehicle (TRIS buffer). The samples are then assessed in GLP-1R agonist assays.
Compounds were incubated overnight at 37° C. in the presence of recombinant DPP4 or vehicle (TRIS buffer, pH 8.0). The samples were then assessed in GLP1R agonist assays as described elsewhere herein.

C57BL/6J mice = experiment: Intestinal mucosal growth after five daily s.c. injections in C57BL/6J mice; format: in vivo; settings: s.c. once daily for five days; for intestinal mucosal growth / trophic effect: 25 μg/mouse for villus height; for intestinal weight: sacrificed on day 6, N=6 animals/group
Method: C57BL/6J mice were injected s.c. once daily for five days with either vehicle, GLP2-L17K(l1)-4, or Gattex at indicated doses. Animals were sacrificed on day 6, followed by analysis of intestinal tissue.
C57BL/6J mice were injected s.c. once daily for five days with either vehicle, GLP2-L17K [L1]-4 or Gattex at indicated doses. Animals were sacrificed on day 6, followed by measurement of intestinal weight. […] C57BL/6J mice were injected s.c. once daily for five days with either 25 μg of GLP2-L17K [L1]-4 or vehicle. Animals were sacrificed on day 6.

[2] = Plasma GLP-2R agonist activity 24 h after s.c. injection in mice (luciferase reporter gene assay); format: in vivo; settings: 1.25 μg s.c., compared with Gattex
Method: Clearance of this compound was compared to that of Gattex, an established GLP-2 based drug, Compounds (1.25 μg) were injected subcutaneously (s.c.) in mice. Plasma was collected after 24 h and analyzed by luciferase reporter gene assay for GLP-2R agonist activity.
Compounds (1.25 μg) were injected s.c. in mice. Plasma was collected after 24 h and analyzed by luciferase reporter gene assay for GLP-2R agonist activity.

DPP4 [3] = molecular target: T1, DPP4; experiment: DPP4 degradation of GLP-2 peptides: incubation with recombinant DPP4, then GLP-2R reporter assay; settings: GLP-2R readout
Method: Peptides were incubated with vehicle or recombinant DPP4. Serial dilutions of GLP2-1 and GLP2-4 were then applied to HEK293 cells, which had been transfected with cDNA encoding human GLP-2R and a cAMP-responsive reporter gene.
Peptides were incubated with recombinant DPP4. Serial dilutions of GLP-2 and GLP2-4 were then applied to HEK293 cells, which had been transfected with cDNA encoding human GLP-2R and a cAMP-responsive reporter gene. […] N=4, mean+SEM.
DPP4 resistance (FIG. 13): Lipidated peptides are compared with the prototype, F-GLP2-palm. After an overnight incubation (16 hrs) in the presence vs. the absence of DPP4, receptor mediated function is assessed as shown elsewhere herein. As a DPP4 susceptible control, parallel experiments are done using GLP-2. […] Following overnight preincubation, serial dilutions of ligands were prepared and added to GLP-2R expressing cells for 4 hours. A luciferase reporter gene assay was used to monitor Gαs coupled second messenger signaling.

Molecule: CC[C@H](C)[C@H](NC(=O)[C@H](Cc1ccccc1)NC(=O)[C@H](CCC(=O)O)NC(=O)[C@H](CCCCN)NC(=O)[C@H](C)NC(=O)[C@H](C)NC(=O)[C@H](CCC(N)=O)NC(=O)CNC(=O)[C@H](CCC(=O)O)NC(=O)[C@H](CC(C)C)NC(=O)[C@H](Cc1ccc(O)cc1)NC(=O)[C@H](CO)NC(=O)[C@H](CO)NC(=O)[C@@H](NC(=O)[C@H](CC(=O)O)NC(=O)[C@H](CO)NC(=O)[C@@H](NC(=O)[C@H](Cc1ccccc1)NC(=O)[C@@H](NC(=O)CNC(=O)[C@H](CCC(=O)O)NC(=O)[C@H](C)NC(=O)[C@H](Cc1c[nH]cn1)NCC(C)C)[C@@H](C)O)[C@@H](C)O)C(C)C)C(=O)N[C@@H](C)C(=O)N[C@@H](Cc1c[nH]c2ccccc12)C(=O)N[C@@H](CC(C)C)C(=O)N[C@H](C(=O)N[C@@H](CCCCN)C(=O)NCC(=O)N[C@@H](CCCNC(=N)N)C(N)=O)C(C)C [G-6, isobutyl GLP-1]
- DPP4 degradation / resistance (in words) (DPP4 [1]): virtually complete DPP4 resistance

Molecule: CCCCCCCCCCCCCCCC(=O)NCCC(=O)NCCCC[C@H](NC(=O)[C@H](CC(N)=O)NC(=O)[C@H](CC(=O)O)NC(=O)[C@H](CC(C)C)NC(=O)[C@@H](NC(=O)[C@@H](NC(=O)[C@H](CC(N)=O)NC(=O)[C@H](CCSC)NC(=O)[C@H](CCC(=O)O)NC(=O)[C@H](CC(=O)O)NC(=O)[C@H](CO)NC(=O)[C@H](Cc1ccccc1)NC(=O)[C@H](CO)NC(=O)CNC(=O)[C@H](CC(=O)O)NC(=O)[C@H](C)NC(=O)[C@H](Cc1c[nH]cn1)NCC(F)(F)F)[C@@H](C)O)[C@@H](C)CC)C(=O)N[C@@H](C)C(=O)N[C@@H](C)C(=O)N[C@@H](CCCNC(=N)N)C(=O)N[C@@H](CC(=O)O)C(=O)N[C@@H](Cc1ccccc1)C(=O)N[C@H](C(=O)N[C@@H](CC(N)=O)C(=O)N[C@@H](Cc1c[nH]c2ccccc12)C(=O)N[C@@H](CC(C)C)C(=O)N[C@H](C(=O)N[C@@H](CCC(N)=O)C(=O)N[C@H](C(=O)N[C@@H](CCCCN)C(=O)N[C@H](C(=O)N[C@H](C(=O)N[C@@H](CC(=O)O)C(=O)O)[C@@H](C)O)[C@@H](C)CC)[C@@H](C)O)[C@@H](C)CC)[C@@H](C)CC [GLP2-L17K(l1)-4] (H-[N(CH2CF3)His]ADGSFSDEMNTILDNK([βAla-Palmitoyl])AARDFINWLIQTKITD-OH; N-terminus and C-terminus assumed)
- intestinal mucosal growth / trophic effect (C57BL/6J mice): induces intestinal mucosal growth
- intestinal mucosal growth / trophic effect (C57BL/6J mice; listed as GLP2-L17K [L1]-4): trophic effect on the intestinal mucosa
- intestinal weight (C57BL/6J mice): enhances intestinal weight
- intestinal weight (C57BL/6J mice; listed as GLP2-L17K [L1]-4): increased intestinal weight in a dose dependent manner
- bioactivity in plasma 24 h after injection [2]: extended bioactivity in vivo
- bioactivity in plasma 24 h after injection ([2]; listed as GLP2-L17K [L1]-4): remains at high levels in the circulation
- DPP4 degradation / resistance (in words) (DPP4 [3]): refractory to DPP4 degradation
- DPP4 degradation / resistance (in words) (DPP4 [3]; listed as F-GLP2-palm): protease (DPP4) resistant

Molecule: CC[C@H](C)[C@H](NC(=O)[C@H](Cc1ccccc1)NC(=O)[C@H](CC(=O)O)NC(=O)[C@H](CCCNC(=N)N)NC(=O)[C@H](C)NC(=O)[C@H](C)NC(=O)[C@H](CC(C)C)NC(=O)[C@H](CC(N)=O)NC(=O)[C@H](CC(=O)O)NC(=O)[C@H](CC(C)C)NC(=O)[C@@H](NC(=O)[C@@H](NC(=O)[C@H](CC(N)=O)NC(=O)[C@H](CCSC)NC(=O)[C@H](CCC(=O)O)NC(=O)[C@H](CC(=O)O)NC(=O)[C@H](CO)NC(=O)[C@H](Cc1ccccc1)NC(=O)[C@H](CO)NC(=O)CNC(=O)[C@H](CC(=O)O)NC(=O)[C@H](C)NC(=O)[C@H](Cc1c[nH]cn1)NCC(F)(F)F)[C@@H](C)O)[C@@H](C)CC)C(=O)N[C@@H](CC(N)=O)C(=O)N[C@@H](Cc1c[nH]c2ccccc12)C(=O)N[C@@H](CC(C)C)C(=O)N[C@H](C(=O)N[C@@H](CCC(N)=O)C(=O)N[C@H](C(=O)N[C@@H](CCCCN)C(=O)N[C@H](C(=O)N[C@H](C(=O)N[C@@H](CC(=O)O)C(=O)O)[C@@H](C)O)[C@@H](C)CC)[C@@H](C)O)[C@@H](C)CC [GLP2-4]
- DPP4 degradation / resistance (in words) (DPP4 [3]): no potency loss; also recorded: completely resistant to degradation
- DPP4 degradation / resistance (in words) (DPP4 [3]; listed as GLP-2-4): no potency loss

Molecule: CC[C@H](C)[C@H](NC(=O)[C@H](Cc1ccccc1)NC(=O)[C@H](CCC(=O)O)NC(=O)[C@H](CCCCN)NC(=O)[C@H](C)NC(=O)[C@H](C)NC(=O)[C@H](CCC(N)=O)NC(=O)CNC(=O)[C@H](CCC(=O)O)NC(=O)[C@H](CC(C)C)NC(=O)[C@H](Cc1ccc(O)cc1)NC(=O)[C@H](CO)NC(=O)[C@H](CO)NC(=O)[C@@H](NC(=O)[C@H](CC(=O)O)NC(=O)[C@H](CO)NC(=O)[C@@H](NC(=O)[C@H](Cc1ccccc1)NC(=O)[C@@H](NC(=O)CNC(=O)[C@H](CCC(=O)O)NC(=O)[C@H](C)NC(=O)[C@H](Cc1c[nH]cn1)NC(C)=O)[C@@H](C)O)[C@@H](C)O)C(C)C)C(=O)N[C@@H](C)C(=O)N[C@@H](Cc1c[nH]c2ccccc12)C(=O)N[C@@H](CC(C)C)C(=O)N[C@H](C(=O)N[C@@H](CCCCN)C(=O)NCC(=O)N[C@@H](CCCNC(=N)N)C(N)=O)C(C)C [GLP-1b]
- DPP4 degradation / resistance (in words) (DPP4 [1]): stability against DPP4

Molecule: CC[C@H](C)[C@H](NC(=O)[C@H](C)NC(=O)[C@H](CC(=O)O)NC(=O)[C@H](C)NC(=O)[C@H](Cc1ccc(O)cc1)NCC(F)(F)F)C(=O)N[C@@H](Cc1ccccc1)C(=O)N[C@H](C(=O)N[C@@H](CC(N)=O)C(=O)N[C@@H](CO)C(=O)N[C@@H](Cc1ccc(O)cc1)C(=O)N[C@@H](CCCNC(=N)N)C(=O)N[C@@H](CCCCN)C(=O)N[C@H](C(=O)N[C@@H](CC(C)C)C(=O)NCC(=O)N[C@@H](CCC(N)=O)C(=O)N[C@@H](CC(C)C)C(=O)N[C@@H](CO)C(=O)N[C@@H](C)C(=O)N[C@@H](CCCNC(=N)N)C(=O)N[C@@H](CCCCN)C(=O)N[C@@H](CC(C)C)C(=O)N[C@@H](CC(C)C)C(=O)N[C@@H](CCC(N)=O)C(=O)N[C@@H](CC(=O)O)C(=O)N[C@H](C(=O)N[C@@H](CCSC)C(=O)N[C@@H](CO)C(=O)N[C@@H](CCCNC(=N)N)C(N)=O)[C@@H](C)CC)C(C)C)[C@@H](C)O [GH29-4]
- DPP4 degradation / resistance (in words) (DPP4 [1]): resistant to enzyme induced potency loss

Molecule: CC[C@H](C)[C@H](NC(=O)[C@H](Cc1ccccc1)NC(=O)[C@H](CCC(=O)O)NC(=O)[C@H](CCCCN)NC(=O)[C@H](C)NC(=O)[C@H](C)NC(=O)[C@H](CCC(N)=O)NC(=O)CNC(=O)[C@H](CCC(=O)O)NC(=O)[C@H](CC(C)C)NC(=O)[C@H](Cc1ccc(O)cc1)NC(=O)[C@H](CO)NC(=O)[C@H](CO)NC(=O)[C@@H](NC(=O)[C@H](CC(=O)O)NC(=O)[C@H](CO)NC(=O)[C@@H](NC(=O)[C@H](Cc1ccccc1)NC(=O)[C@@H](NC(=O)CNC(=O)[C@H](CCC(=O)O)NC(=O)[C@H](C)NC(=O)[C@H](Cc1c[nH]cn1)NCc1ccccc1)[C@@H](C)O)[C@@H](C)O)C(C)C)C(=O)N[C@@H](C)C(=O)N[C@@H](Cc1c[nH]c2ccccc12)C(=O)N[C@@H](CC(C)C)C(=O)N[C@H](C(=O)N[C@@H](CCCCN)C(=O)NCC(=O)N[C@@H](CCCNC(=N)N)C(N)=O)C(C)C [benzyl]
- DPP4 degradation / resistance (in words) (DPP4 [1]): virtually complete DPP4 resistance

Molecule: CCCCCCCCCCCCCCCC(=O)N[C@@H](CCC(=O)NCCCC[C@H](NC(=O)[C@H](C)NC(=O)[C@H](C)NC(=O)[C@H](CCC(N)=O)NC(=O)CNC(=O)[C@H](CCC(=O)O)NC(=O)[C@H](CC(C)C)NC(=O)[C@H](Cc1ccc(O)cc1)NC(=O)[C@H](CO)NC(=O)[C@H](CO)NC(=O)[C@@H](NC(=O)[C@H](CC(=O)O)NC(=O)[C@H](CO)NC(=O)[C@@H](NC(=O)[C@H](Cc1ccccc1)NC(=O)[C@@H](NC(=O)CNC(=O)[C@H](CCC(=O)O)NC(=O)[C@H](C)NC(=O)[C@@H](N)Cc1cnc[nH]1)[C@@H](C)O)[C@@H](C)O)C(C)C)C(=O)N[C@@H](CCC(=O)O)C(=O)N[C@@H](Cc1ccccc1)C(=O)N[C@H](C(=O)N[C@@H](C)C(=O)N[C@@H](Cc1c[nH]c2ccccc12)C(=O)N[C@@H](CC(C)C)C(=O)N[C@H](C(=O)N[C@@H](CCCNC(=N)N)C(=O)NCC(=O)N[C@@H](CCCNC(=N)N)C(=O)NCC(=O)O)C(C)C)[C@@H](C)CC)C(=O)O [liraglutide]
- potency loss after incubation with DPP4 (DPP4 [1]; overnight incubation with the enzyme, GLP-1R readout): > 50 fold

Molecule: Glucagon
- DPP4 degradation / resistance (in words) (DPP4 [1]): degraded by DPP4
